Read-outs that look alike come from different tables or passages of the source.
What was measured:
[1] = Microsomal Stability Assay, mouse liver microsomes; assay type: in vitro ADME; conditions: for microsomal CLint at 0.1 uM: male, CD-1, pH 7.4, mouse liver microsomes 0.1 mg/mL, 0.1 uM compound; for Microsomal Stability Mouse % rem. 60 min: mouse liver microsomes
Protocol: Samples were then mixed and centrifuged. Supernatants were used for HPLC-MS/MS analysis. […] Peak areas corresponding to the test compound were recorded.

[2] = target: T1, DNA-PK phosphorylation at Serine 2056 (Homo sapiens, UniProt P78527); experiment: Cellular Assay for Inhibition of DNA-PK Phosphorylation at Serine 2056 in FaDu cells (sandwich ELISA, neocarzinostatin); assay type: cell-based; conditions: pSer2056 DNA-PK
T1 construct: FaDu cells were purchased from ATCC; host or cells: FaDu
Summary of the method: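 pSer2056 and total DNA-PK were measured by sandwich ELISA in BCA-normalised FaDu lysates. Cells had 1 h compound exposure (0.3% DMSO), then 2 h with 1 μg/mL final neocarzinostatin. IC50 was fitted (variable slope) to % inhibition scaled against NCS-stimulated and DMSO-only controls.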

[3] = target: T2, DNA-PK (Homo sapiens, UniProt P78527); experiment: DNA-PK Assay for Biochemical Enzymatic Inhibition (ADP Glo Kinase assay); conditions: DNA-PK enzyme
T2 construct: purchased Invitrogen PR9107A
Summary of the method: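 Human DNA-PK (25 ng) preincubated 15 min with compounds (ten three-fold dilutions) in HEPES pH 7.5, MgCl2, KCl, calf thymus DNA buffer, then substrate 434.4 μM and ATP 64.4 μM (final) for 60 min at room temperature. ADP-Glo luminescence; percent inhibition fitted by four-parameter regression for IC50.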

[4] = tested on: FaDu cell line; experiment: Prodrug Activation in Hypoxic Stirred Tumour Cell Suspensions; conditions: 10 μM, 4 hours
[5] = tested on: pH2AX induction in HCT116 ATM-/- multicellular tumour spheroids; experiment: Prodrug Radiation Sensitization in Multicellular Tumour Spheroids, inhibition of pH2AX induction following radiation; assay type: cell-based; conditions: Homo sapiens, HCT-116, 20 Gy
Summary of the method: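 Endpoint: pH2AX (ser 139) or pDNA-PK (ser 2056) in cryosections fixed 1 or 2 h after 20 Gy, comparing oxygenated outer with hypoxic inner layers. Spheroids of ~0.5 mm (HCT116, FaDu; ATM-deficient cells used) held at 20% or 5% O2, 37 °C, stirred. Prodrug range 3.5 nM–10 μM.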

[6] = tested on: pDNA-PK induction in HCT116 tumour spheroids; experiment: Multicellular tumour spheroid + radiation, pDNA-PK (ser2056) inhibition, immunohistochemical endpoint, HCT116; assay type: cell-based; conditions: 20 Gy, 20% O2
Protocol: Multicellular tumour spheroids determination of compound inhibition of pDNA-PK induction following radiation. Tumour spheroids were grown to approximately 0.5 mm in diameter and irradiated with 20 Gy in combination with inhibitor test compounds to determine their potency. Inhibitor concentration for 50% reduction in pDNA-PK induction (IC50) was determined via immunohistochemical staining in spheroid cryosections taken 2 hours following radiation.
(§1) Spheroid+radiation pDNA-PK. Radiation: 20 Gy. Drug: serial dilution 5 or 10 μM down to 3.5 nM (11 wells). Spheroids: 3-6 spheroids per well (300-500 μm diameter). 20% 02 and 5% CO2. 96 well plate format.
Protocol: pre-incubate 1 hours with drug, irradiate with 20 Gy, post-incubate 2 hours with drug, freeze and cryosection ×3 replicates.
Endpoint: fluorescent immunostin pDNA-PK ser2056 and image on microscope.
Analysis: determine EC50 concentration that decreases pDNA-PK induction by 50% after radiation.
Multicellular tumour spheroids determination of compound inhibition of pDNA-PK induction following radiation. Tumour spheroids were grown to approximately 0.5 mm in diameter and irradiated with 20 Gy in combination with inhibitor test compounds to determine their potency. Inhibitor concentration for 50% reduction in pDNA-PK induction (IC50) was determined via immunohistochemical staining in spheroid cryosections taken 2 hours following radiation. For cell survival endpoint 8 Gy radiation was used and 3 hours following radiation spheroids were dissociated, counted and plated for colony forming endpoint.
as §1, with “format. Endpoint: fluorescent immunostain pDNA-PK ser2056 and image on microscope. Analysis: determine EC50 concentrations that decreases pDNA-PK induction by 50% after irradiation.” for “format.”
Multicellular tumour spheroids were used to determine potency of test compounds in a 3D tissue environment using inhibition of pDNA-PK induction following radiation or cell survival as the endpoint. For the pDNA-PK endpoint HCT116 or FaDU tumour spheroids were grown to approximately 0.5 mm in diameter and irradiated with 20 Gy in combination with inhibitor test compounds to determine their potency. Experiments were carried out in 96 well plates containing 0.7 mls of MEM media containing 10% FBS and 10 mM glucose under 20% O2 & 5% CO2 at 37° C. Following dilution of compounds 1:1000 from DMSO stocks, compounds were serially diluted from 10 μM down to 3.5 nM and 5-10 spheroids added. 96 well plates were constantly stirred to avoid spheroids settling during the course of the experiment. The inhibitor concentration for 50% reduction in pDNA-PK induction (EC50) was determined via immunohistochemical staining in spheroid cryosections taken 2 hours following radiation using anti-pDNA-PK (ser 2056) and fixed immediately in formalin following sectioning. For cell survival endpoint 8 Gy radiation was used and, 3 hours following radiation, spheroids were dissociated, counted and plated for colony forming endpoint. Data presented in the table compound potency as EC50 [μM].

[7] = neocarzinostatin 1 μg/mL, Table 1
[8] = 5% O2, inner layers, read-out: Prodrug 5% O2 Inner layers EC50
[9] = 5% O2, outer layers, read-out: Prodrug 5% O2 Outer layers EC50
[10] = 20% O2, outer layers, read-out: Prodrug 20% O2 Outer layers EC50
[11] = Homo sapiens, HCT-116, 2 hours following radiation, Example 9 Study 2, read-out: Spheroid Cell line: HCT116 Immunohistochemical endpoint pDNA-PK inhibition EC50
[12] = Homo sapiens, HCT-116, Spheroid, Cell Line: HCT115 (so in the source), 2 hours following radiation, Example 7, read-out: EC50, Immunohistochemical endpoint, pDNA-PK inhibition

SMILES | IC50 [2, 7] | IC50 ([3]; Table 1) | EC50 [6, 11] | EC50 [6, 12] | further results
CC1(C)CN(c2cc3ncccc3c(O[C@H]3CC[C@@H](n4ccnc4)CC3)n2)CC(C)(C)O1 [Compound 12, 4-(5-(((1s,4s)-4-(1H-imidazol-1-yl)cyclohexyl)oxy)-1,6-naphthyridin-7-yl)-2,2,6,6-tetramethylmorpholine] |  | 10 to 150 nM |  |  | microsomal CLint at 0.1 uM [1]: > 116 µL/min/mg; Microsomal Stability Mouse % rem. 60 min [1]: E (% remaining = 0-25%)
Cn1c(COc2cnc3cc(N4CCOCC4)nc(O[C@H]4CC[C@@H](NC(=O)c5ncccn5)CC4)c3c2)cnc1[N+](=O)[O-] [LFA116, N-[4-[[3-[(3-Methyl-2-nitro-imidazol-4-yl)methoxy]-7-morpholino-1,6-naphthyridin-5-yl]oxy]cyclohexyl]pyrimidine-2-carboxamide] |  |  |  |  | Fraction of prodrug converted to active form, Hypoxic 0.2% O2 [4]: A (A is 0.15 to 1); Fraction of prodrug converted to active form, Oxic 5% O2 [4]: C (C is 0.02 to 0.05); EC50 [5, 8]: 10 to 500 nM; EC50 [5, 9]: 1000 to 10000 nM; EC50 [5, 10]: 1000 to 10000 nM; IC50 ([2]; Table 2): 10000 to 30000 nM; IC50 ([3]; Table 2): 10 to 150 nM
O=C(Nc1ccc(F)cc1)N[C@H]1CC[C@@H](Oc2nc(N3CCOCC3)cc3ncccc23)CC1 [Compound 151, 1-(4-Fluorophenyl)-3-((1s,4s)-4-((7-morpholino-1,6-naphthyridin-5-yl)oxy)cyclohexyl)urea] | 100 to 1000 nM | 1 to 10 nM | 1000 to 10000 nM | 1000 to 10000 nM | EC50 ([6]; Homo sapiens, HCT-116, 2 h, spheroids, Example 8, read-out: Cell line: HCT116 Immunohistochemical endpoint pDNA-PK inhibition EC50): 1000 to 10000 nM
O=C(COc1cnc(N[C@H]2CC[C@@H](Oc3nc(N4CCOCC4)cc4ncccc34)CC2)nc1)N1CCCC1 [Compound 74, 2-((2-(((1s,4s)-4-((7-Morpholino-1,6-naphthyridin-5-yl)oxy)cyclohexyl)amino)pyrimidin-5-yl)oxy)-1-(pyrrolidin-1-yl)ethan-1-one] | 100 to 1000 nM | 0.5 to 1 nM | 1000 to 10000 nM | 1000 to 10000 nM | 
CCOC(=O)c1cnc(NC2CCOCC2)nc1N[C@H]1CC[C@@H](Oc2nc(N3CCOCC3)cc3ncccc23)CC1 [Compound 93, Ethyl 4-(((1s,4s)-4-((7-morpholino-1,6-naphthyridin-5-yl)oxy)cyclohexyl)amino)-2-((tetrahydro-2H-pyran-4-yl)amino)pyrimidine-5-carboxylate] | 1000 to 10000 nM | 10 to 150 nM | 10000 to 100000 nM | 10000 to 100000 nM | 
N=C(N)N[C@H]1CC[C@@H](Oc2nc(N3CCOCC3)cc3ncccc23)CC1 [Compound 16, 1-((1s,4s)-4-((7-morpholino-1,6-naphthyridin-5-yl)oxy)cyclohexyl)guanidine] | 1000 to 10000 nM | 1 to 10 nM |  |  | EC50 ([6]; 2 hours following radiation, Example 9 Study 2, read-out: Spheroid Cell line: HCT116 Immunohistochemical endpoint pDNA-PK inhibition EC50): 10000 to 100000 nM; EC50 ([6]; Spheroid, Cell Line: HCT115 (so in the source), 2 hours following radiation, Example 7, read-out: EC50, Immunohistochemical endpoint, pDNA-PK inhibition): 10000 to 100000 nM; EC50 ([6]; spheroids, Example 8, read-out: Cell line: HCT116 Immunohistochemical endpoint pDNA-PK inhibition EC50): 10000 to 100000 nM
O=C(COc1cnc(N[C@H]2CC[C@@H](Oc3nc(N4CCOCC4)cc4ncccc34)CC2)nc1)N1CCSCC1 [Compound 73, 2-((2-(((1s,4s)-4-((7-Morpholino-1,6-naphthyridin-5-yl)oxy)cyclohexyl)amino)pyrimidin-5-yl)oxy)-1-thiomorpholinoethan-1-one] | 100 to 1000 nM | 0.5 to 1 nM | 1000 to 10000 nM | 1000 to 10000 nM | 
CCOC(=O)c1cnc(N[C@H]2CC[C@@H](Oc3nc(N4CCOCC4)cc4ncccc34)CC2)nc1NC1CCOCC1 [Compound 94, Ethyl 2-(((1s,4s)-4-((7-morpholino-1,6-naphthyridin-5-yl)oxy)cyclohexyl)amino)-4-((tetrahydro-2H-pyran-4-yl)amino)pyrimidine-5-carboxylate] | 100 to 1000 nM | 10 to 150 nM | 1000 to 10000 nM | 1000 to 10000 nM | 
Cn1c(COc2cnc3cc(N4CCOCC4)nc(O[C@H]4CC[C@@H](Nc5ncccn5)CC4)c3c2)cnc1[N+](=O)[O-] [LFA118, N-[4-[[3-[(3-Methyl-2-nitro-imidazol-4-yl)methoxy]-7-morpholino-1,6-naphthyridin-5-yl]oxy]cyclohexyl]pyrimidin-2-amine] |  |  |  |  | Fraction of prodrug converted to active form, Hypoxic 0.2% O2 [4]: A (A is 0.15 to 1); Fraction of prodrug converted to active form, Oxic 5% O2 [4]: C (C is 0.02 to 0.05); EC50 [5, 8]: 10 to 500 nM; EC50 [5, 9]: 500 to 1000 nM; EC50 [5, 10]: 1000 to 10000 nM; IC50 ([2]; Table 2): 10000 to 30000 nM; IC50 ([3]; Table 2): 10 to 150 nM
Cn1ccnc1COc1cnc(N[C@H]2CC[C@@H](Oc3nc(N4CCOCC4)cc4ncccc34)CC2)nc1 [Compound 79, 5-((1-methyl-1H-imidazol-2-yl)methoxy)-N-((1s,4s)-4-((7-morpholino-1,6-naphthyridin-5-yl)oxy)cyclohexyl)pyrimidin-2-amine] | 100 to 1000 nM | 0.5 to 1 nM | 1000 to 10000 nM | 1000 to 10000 nM | 

Now from value to compound, other results behind:

IC50 [2, 7] | IC50 ([3]; Table 1) | EC50 [6, 11] | EC50 [6, 12] | SMILES | further results
1000 to 10000 nM | 1 to 10 nM |  |  | Cc1noc(C)c1-c1cnc2cc(N3CCOCC3)nc(O[C@H]3CC[C@@H](n4ccnc4)CC3)c2c1 [Compound 157, 4-(5-(((1s,4s)-4-(1H-imidazol-1-yl)cyclohexyl)oxy)-3-(3,5-dimethylisoxazol-4-yl)-1,6-naphthyridin-7-yl)morpholine] | microsomal CLint at 0.1 uM [1]: > 116 µL/min/mg; Microsomal Stability Mouse % rem. 60 min [1]: E (% remaining = 0-25%)
 | 10 to 150 nM |  |  | c1ccc(-c2cnc3cc(N4CCOCC4)nc(O[C@H]4CC[C@@H](n5ccnc5)CC4)c3c2)cc1 [Compound 156, 4-(5-(((1s,4s)-4-(1H-imidazol-1-yl)cyclohexyl)oxy)-3-phenyl-1,6-naphthyridin-7-yl)morpholine] | microsomal CLint at 0.1 uM [1]: > 116 µL/min/mg; Microsomal Stability Mouse % rem. 60 min [1]: E (% remaining = 0-25%)
1000 to 10000 nM | 10 to 150 nM | 10000 to 100000 nM | 10000 to 100000 nM | O=S1(=O)CCCN1c1cnc2cc(N3CCOCC3)nc(O[C@H]3CC[C@@H](Nc4ncccn4)CC3)c2c1 [Compound 195, 2-(7-morpholino-5-(((1s,4s)-4-(pyrimidin-2-ylamino)cyclohexyl)oxy)-1,6-naphthyridin-3-yl)isothiazolidine 1,1-dioxide] | 

From patent publication US20240239790A1, “7-Morpholino-1,6-Naphthyridin-5-yl Derivatives and Pharmaceutical Compositions Thereof Useful as DNA-PK Inhibitor” (adMare Therapeutics Society, priority 2021, published 2024)
